What was measured:
[1] = tested on: EGFR mutant L858R Ba/F3 cells; test: Ba/F3 cell proliferation (Cell Titer Glo), EGFR L858R; format: cell-based, murine; conditions: Mus musculus, BaF3, Ba/F3 cells with EGFR L858R, 72 hours exposure, read-out: L BaF3
Excerpt: (§1) The EGFR mutant L858R Ba/F3 cells have been previously described (Zhou, W., et al. Nature 462, 2009, 1070-1074). The EGFR C797S and C775S mutations were introduced via site directed mutagenesis using the Quick Change Site-Directed Mutagenesis kit into a vector containing EGFR […] mutation (Stratagene; La Jolla, CA) according to the manufacturer’s instructions. All constructs were confirmed by DNA sequencing. The constructs were then shuttled into the retroviral vector JP1540 by either using the Cre-recombination system (Agilent Technologies, Santa Clara, CA) or the In-fusion HD Cloning kit (Takara Bio USA, Inc.; Mountain view, CA). Ba/F3 cells were then infected with retrovirus per standard protocols, as described previously (Zhou, et al, Nature 2009). […]
(§2) Growth and inhibition of growth was assessed by the Cell Titer Glo assay (Promega, Madison, WI) and was performed according to the manufacturer’s instructions. The Cell Titer Glo assay is a luminescence-based method used to determine the number of viable cells based on quantitation of the ATP present, which is directly proportional to the amount of metabolically active cells present. Ba/F3 cells of different EGFR genotypes were exposed to compounds for 72 hours and the number of cells used per experiment was determined empirically as has been previously established (Zhou, et al., Nature 2009). […]

[2] = tested on: EGFR L858R/C797S Ba/F3 cells; test: Ba/F3 cell proliferation (Cell Titer Glo), EGFR L858R/C797S; format: cell-based, murine; conditions: Mus musculus, BaF3, Ba/F3 cells with EGFR L858R/C797S, 72 hours exposure, read-out: L/C797S
Excerpt: as §1, §2

SMILES: C=CC(=O)Nc1cc(C(=O)Nc2nc3cccc(C)c3n2[C@@H]2CCCCN(C(=O)C=C)C2)cs1 [compound 001]
- EC50 [1]: 6 nM
- EC50 [2]: 334 nM
